According to ChEMBL document CHEMBL4024772, “Aniline-Based Inhibitors of Influenza H1N1 Virus Acting on Hemagglutinin-Mediated Fusion” (J Med Chem, 2018):

How the values were obtained:
Assay in all cases: microbe, parasite or virus in culture
Assay type in all cases: functional, cell-based
Settings in all cases: MDCK
Influenza A virus [1] = tested on: Influenza A virus
Influenza A virus [2] = tested on: Influenza A virus; remark: listed apart in the source
Influenza A virus [3] = tested on: Influenza A virus; remark: listed apart in the source

| SMILES | EC50 (Influenza A virus [1]) | EC50 (Influenza A virus [2]) | EC50 (Influenza A virus [3]) |
| --- | --- | --- | --- |
| CC(C)c1ccccc1NCCN1CCCCCC1 | > 100 µM | > 100 µM | 1.5 µM |
| CC(C)c1ccccc1NCCN1CCCCC1 | > 100 µM | > 100 µM | 2.3 µM |
| NC(=O)c1ncn([C@@H]2O[C@H](CO)[C@@H](O)[C@H]2O)n1 [RIBAVIRIN] |  |  | 15 µM |
